These results are taken from patent publication US6428974B1, “Microplate for drug susceptibility testing containing a drug, a color reagent, and color suppressant” (Kanto Kagaku Kabushiki Kaisha, priority 1998, dated 2002).

One may read the MIC as the least concentration at which growth counts as inhibited. A higher MIC goes with weaker potency.

In assay [1] the test system is Candida albicans ATCC 90028. The note with it: C. albicans ATCC 90028; MIC acceptable range of NCCLS M27-A; cited from earlier work.
In assay [2] the test system is Candida albicans ATCC 24433. Particulars: C. albicans ATCC 24433; MIC acceptable range of NCCLS M27-A; cited from earlier work.
The subject of assay [3] is Candida krusei ATCC 6258. Particulars: C. krusei ATCC 6258; MIC acceptable range of NCCLS M27-A; cited from earlier work.
Assay [4] relates to Candida parapsilosis ATCC 90018. Particulars: C. parapsilosis ATCC 90018; MIC acceptable range of NCCLS M27-A; cited from earlier work.
The subject of assay [5] is Candida parapsilosis ATCC 22019. Particulars: C. parapsilosis ATCC 22019; MIC acceptable range of NCCLS M27-A; cited from earlier work.
For assay [6], the system named is Candida tropicalis ATCC 750. Nature of the assay: Turbidity method (Japanese Society for Medical Mycology microdilution). Particulars: C. tropicalis ATCC 750, range over repeated tests (n = 10); for MIC: Candida tropicalis, ATCC750. It is filed as cell-based. The protocol: (§1) For the comparison was used the 1.2% glucose MOPS buffered RPMI 1640medium and it was carried out according to the proposed method of Japanese Society for Medical Mycology (the microdilution method of 0.2 ml incubation system).
(Broth dilution looks for growth in wells or tubes with falling amounts of substance.)

For assay [7], the system named is Candida parapsilosis ATCC 90018. The assay is described as above. The format is cell-based. The note with it: C. parapsilosis ATCC 90018, range over repeated tests (n = 7); for MIC: Lodderomyces parapsilosis, ATCC90018. The protocol: as §1
Assay [8] relates to Candida parapsilosis ATCC 22019. Described as above. It is filed as cell-based. The note with it: C. parapsilosis ATCC 22019, range over repeated tests (n = 10); for MIC: Lodderomyces parapsilosis, ATCC22019. The protocol: as §1
The subject of assay [9] is Candida albicans ATCC 90028. The assay is described as above. Particulars: C. albicans ATCC 90028, range over repeated tests (n = 10); for MIC: Candida albicans, ATCC90028. It is filed as cell-based. The method, then:
as §1

Assay [10] relates to Candida krusei ATCC 6258. Described as above. The format is cell-based. The note with it: C. krusei ATCC 6258, range over repeated tests (n = 10); for MIC: Pichia kudriavzevii, ATCC6258. The method, then:
as §1

Assay [11] relates to Candida albicans ATCC 24433. The assay is described as above. Particulars: C. albicans ATCC 24433, range over repeated tests (n = 10); for MIC: Candida albicans, ATCC24433. The format is cell-based. The method, then:
as §1

In assay [12] the test system is Candida tropicalis ATCC 750. Briefly: Microplate method of the invention (WST-8 color reagent). Particulars: C. tropicalis ATCC 750, range over repeated tests (n = 10), AMPH complete inhibition, 5-FC/FLCZ/MCZ IC80, 24 or 48 hrs, 35°C; for MIC: Candida tropicalis, ATCC750. The format is cell-based. The method, then: (§2) Four drugs of AMPH, 5-FC, FLCZ and MCZ were considered. The drug solution for the solid phase formation on the microplate was prepared as follows. The drug was dissolved in dimethylsulfoxide (DMSO) or diluted by using it. The solution was prepared so that it was AMPH 128 μg/ml, 5-FC 512 μg/ml, FLCZ 512 μg/ml or MCZ 256 μg/ml. By the use of the prepared drug the two fold dilution series was prepared in an appropriate concentration range with DMSO or water, and separately infused by 25 μl/well and formed into the dry and solid phase under vacuum (13.3-26.6 Pa) for 24 hrs. After the solid phase formation of the antifungal, the color reagent consisting of WST-8 0.7 mM, 1-methoxy PMS 3.5 μM, potassium ferricyanide 0.5 mM and potassium ferrocyanide 0.5 mM was separately infused by 20 μl/well and formed into the dry and solid phase under vacuum for 24 hrs.
(§3) By using the colony within 24 hrs. in the incubation was prepared the fungal suspension with the sterile saline 5 ml. The fungal suspension corresponding to McFarland # 0.5 was prepared by measuring the absorbancy at the wave length of 530 nm. 0.1 ml of the prepared fungal suspension was taken by the micropipette, added to 0.9 ml of the 1.2% glucose MOPS buffered PRMI 1640 medium, and stirred thoroughly by the vortex-mixer, and then 0.1 ml of this was taken by the micropipette, added to 20 ml of the […] MOPS buffered PRMI 1640 medium, and stirred thoroughly by the vortex-mixer to prepare the replicated fungal suspension (0.5×10^3−2.5×10^3 cfu/ml). The replicated fungal suspension prepared was separately inoculated by 200 μl into each well of the microplate dryly fixed with the drug having the concentration gradient of the two fold dilution prepared in the above B. After lidding the plate the aerobic culture was done at 35±1° C. The absorbancy at 630 nm of the growth control (the testing fungal strains were incubated in the well wherein the antifungal agents and the color reagent was not formed into the solid phase) after the 24 hrs. incubation was measured.
(§4) After stirring the microplate under shaking for 1 min., the absorbency of the dominant wave length 450 nm and the complementary wavelength 630 nm was measured, and the reading was carried out by the following method.
(§5) 1. The minimum concentration showing the absorbancy in AMPH equal to or less than that in the negative control was made the minimum growth inhibition concentration (MIC).
(§6) 2. The 80% growth inhibition concentration (IC 80) was read in 5-Fc, FLCZ and MCZ. The drug concentration of the well showing the absorbancy equal to or less than the absorbency obtained by the following equation was made MIC.
(§7) (IC80=(positive control−negative control)×0.2 +negative control)
(In general: Tetrazolium dyes change colour on reduction, which living cells bring about.)

The subject of assay [13] is Candida parapsilosis ATCC 90018. The description is as above. It is filed as cell-based. The note with it: C. parapsilosis ATCC 90018, range over repeated tests (n = 7), AMPH complete inhibition, 5-FC/FLCZ/MCZ IC80, 24 or 48 hrs, 35°C; for MIC: Lodderomyces parapsilosis, ATCC90018. The protocol:
as §2, §3, §4, §5, §6, §7

Assay [14] relates to Candida parapsilosis ATCC 22019. The description is as above. It is filed as cell-based. Particulars: C. parapsilosis ATCC 22019, range over repeated tests (n = 10), AMPH complete inhibition, 5-FC/FLCZ/MCZ IC80, 24 or 48 hrs, 35°C; for MIC: Lodderomyces parapsilosis, ATCC22019. The method, then: as §2, §3, §4, §5, §6, §7
Assay [15] deals with Candida albicans ATCC 90028. The assay is described as above. The format is cell-based. The note with it: C. albicans ATCC 90028, range over repeated tests (n = 10), AMPH complete inhibition, 5-FC/FLCZ/MCZ IC80, 24 or 48 hrs, 35°C; for MIC: Candida albicans, ATCC90028. The method, then:
as §2, §3, §4, §5, §6, §7

In assay [16] the test system is Candida krusei ATCC 6258. The assay is described as above. It is filed as cell-based. The note with it: C. krusei ATCC 6258, range over repeated tests (n = 10), AMPH complete inhibition, 5-FC/FLCZ/MCZ IC80, 24 or 48 hrs, 35°C; for MIC: Pichia kudriavzevii, ATCC6258. The protocol:
as §2, §3, §4, §5, §6, §7

Assay [17] relates to Candida albicans ATCC 24433. Described as above. The note with it: C. albicans ATCC 24433, range over repeated tests (n = 10), AMPH complete inhibition, 5-FC/FLCZ/MCZ IC80, 24 or 48 hrs, 35°C; for MIC: Candida albicans, ATCC24433. The format is cell-based. The protocol: as §2, §3, §4, §5, §6, §7
Assay [18] has as its system Candida tropicalis ATCC 750. The note with it: C. tropicalis ATCC 750; MIC acceptable range of NCCLS M27-A; cited from earlier work.

Values after ≈ are worked out from the molar mass of the structure shown.

`Nc1[nH]c(=O)ncc1F` [5-FC, Flucytosine]: the MIC reference range was 0.5 to 2.0 µg/mL in assay [1]; 1.0 to 4.0 µg/mL in [2]; 4.0 to 16 µg/mL in the assay on Candida krusei ATCC 6258 [3]; 0.12 to 0.25 µg/mL in assay [4]; 0.12 to 0.5 µg/mL in assay [5]; 0.12 to 0.25 µg/mL in assay [18]. For the same compound, the minimal inhibitory concentration (MIC) in assay [6] is 0.12 µg/mL (≈ 0.93 µM); in [7], 0.12 µg/mL (≈ 0.93 µM); in assay [8], 0.12 to 0.5 µg/mL (≈ 0.93 to 3.87 µM); in assay [9], 0.25 to 2 µg/mL (≈ 1.94 to 15.5 µM); against Candida krusei ATCC 6258 [10] it was 8 to 16 µg/mL (≈ 62 to 124 µM); in assay [11], 0.5 to 2 µg/mL (≈ 3.87 to 15.5 µM). Moreover, the MIC was 0.12 µg/mL (≈ 0.93 µM) in assay [12]; 0.12 µg/mL (≈ 0.93 µM) in assay [13]; 0.12 to 0.5 µg/mL (≈ 0.93 to 3.87 µM) in assay [14]; 0.25 to 1 µg/mL (≈ 1.94 to 7.75 µM) in [15]; 8 to 16 µg/mL (≈ 62 to 124 µM) with Candida krusei ATCC 6258 [16]; 0.5 to 2 µg/mL (≈ 3.87 to 15.5 µM) in [17].

Turning to `C[C@@H]1[C@H](O)[C@@H](C)/C=C/C=C/C=C/C=C/C=C/C=C/C=C/[C@H](O[C@@H]2O[C@H](C)[C@@H](O)[C@H](N)[C@@H]2O)C[C@@H]2O[C@](O)(C[C@@H](O)C[C@@H](O)[C@H](O)CC[C@@H](O)C[C@@H](O)CC(=O)O[C@H]1C)C[C@H](O)[C@H]2C(=O)O` [AMPH, Amphotericine B], the MIC reference range is 0.5 to 2.0 µg/mL in [1]; 0.25 to 1.0 µg/mL in assay [2]; 0.5 to 2.0 µg/mL in the assay on Candida krusei ATCC 6258 [3]; 0.5 to 2.0 µg/mL in [4]; 0.25 to 1.0 µg/mL in assay [5]; 0.5 to 2.0 µg/mL in assay [18]. Besides, the “MIC, Turbidity method” value in assay [6] lay within 0.12 to 0.5 µg/mL; in [7], 0.12 to 0.25 µg/mL; in assay [8] it was 0.06 to 0.25 µg/mL; in assay [9], 0.12 to 0.5 µg/mL; with Candida krusei ATCC 6258 [10], 0.12 to 0.5 µg/mL; in assay [11] it was 0.12 to 0.5 µg/mL. Also, the “MIC, Method of the invention” value in [12] fell in the range of 0.12 to 0.5 µg/mL; in [13] it was 0.12 to 0.25 µg/mL; in assay [14], 0.12 to 1.0 µg/mL; in assay [15], 0.12 to 0.5 µg/mL; in the assay with Candida krusei ATCC 6258 [16], 0.25 to 0.5 µg/mL; in [17] it was 0.12 to 0.5 µg/mL.

Regarding `OC(Cn1cncn1)(Cn1cncn1)c1ccc(F)cc1F` [FLCZ, Fluconazole], the MIC reference range in assay [1] was 0.25 to 1.0 µg/mL; in assay [2], 0.25 to 1.0 µg/mL; in the assay on Candida krusei ATCC 6258 [3] it was 16 to 64 µg/mL; in assay [4] it was 0.25 to 1.0 µg/mL; in [5] it was 2.0 to 8.0 µg/mL; in assay [18], 1.0 to 4.0 µg/mL. The MIC in assay [6] is 0.5 to 1 µg/mL (≈ 1.63 to 3.27 µM); in [7], 0.5 µg/mL (≈ 1.63 µM); in assay [8] it was 1 to 2 µg/mL (≈ 3.27 to 6.53 µM); in assay [9] it was 0.12 to 0.25 µg/mL (≈ 0.392 to 0.816 µM); against Candida krusei ATCC 6258 [10] it was 8 to 64 µg/mL (≈ 26.1 to 209 µM); in [11], 0.12 to 1 µg/mL (≈ 0.392 to 3.27 µM). Besides, the MIC lay in the range of 0.5 to 2 µg/mL (≈ 1.63 to 6.53 µM) in assay [12]; 0.5 to 2 µg/mL (≈ 1.63 to 6.53 µM) in assay [13]; 2 to 4 µg/mL (≈ 6.53 to 13.1 µM) in [14]; 0.25 to 1 µg/mL (≈ 0.816 to 3.27 µM) in [15]; 16 to 64 µg/mL (≈ 52.2 to 209 µM) against Candida krusei ATCC 6258 [16]; 0.25 to 8 µg/mL (≈ 0.816 to 26.1 µM) in assay [17].

Regarding `Clc1ccc(COC(Cn2ccnc2)c2ccc(Cl)cc2Cl)c(Cl)c1` (stereo not drawn) [MCZ, Miconazole], the MIC lay in the range of 0.12 to 1 µg/mL (≈ 0.288 to 2.4 µM) in assay [6]; 0.06 to 0.25 µg/mL (≈ 0.144 to 0.601 µM) in assay [7]; 0.25 to 0.5 µg/mL (≈ 0.601 to 1.2 µM) in assay [8]; 0.06 to 0.12 µg/mL (≈ 0.144 to 0.288 µM) in assay [9]; 0.25 to 1 µg/mL (≈ 0.601 to 2.4 µM) against Candida krusei ATCC 6258 [10]; 0.06 to 0.5 µg/mL (≈ 0.144 to 1.2 µM) in assay [11]. Besides, the MIC lay in the range of 0.25 to 2 µg/mL (≈ 0.601 to 4.81 µM) in assay [12]; 0.12 to 0.5 µg/mL (≈ 0.288 to 1.2 µM) in assay [13]; 0.5 to 1 µg/mL (≈ 1.2 to 2.4 µM) in assay [14]; 0.06 to 0.12 µg/mL (≈ 0.144 to 0.288 µM) in assay [15]; 0.25 to 1 µg/mL (≈ 0.601 to 2.4 µM) with Candida krusei ATCC 6258 [16]; 0.06 to 1 µg/mL (≈ 0.144 to 2.4 µM) in [17].
